Assay results taken from the supplement of paper PMC10307832.

Legend:
Test in all cases: relative viability (nuclei count vs DMSO), 5 days (fraction); higher = more cells survive
[1] = system: HOP-62
In short: (§1)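 Lung cancer cell lines in 1536-well plates got either a single drug or a fixed anchor-drug dose together with five library-drug doses (not always all listed) in √10 steps, by pin tool, on the day after seeding. Nuclei were counted after 5 days, and relative viability is the treated-to-vehicle ratio of nuclei counts. Values are medians of duplicate plates.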

[2] = system: NCI-H2087
In short: as §1

[3] = system: COR-L 105
In short: as §1

[4] = system: A-427
In short: as §1

[5] = system: CAL-12T
In short: as §1

[6] = system: NCI-H1651
In short: as §1

[7] = system: NCI-H596
In short: as §1

[8] = system: NCI-H1975
In short: as §1

[9] = system: NCI-H1563
In short: as §1

[10] = system: NCI-H650
In short: as §1

[11] = system: NCI-H647
In short: as §1

[12] = system: NCI-H2342
In short: as §1

[13] = system: LCLC-103H
In short: as §1

[14] = system: LXF-289
In short: as §1

[15] = system: COR-L23
In short: as §1

[16] = system: NCI-H2085
In short: as §1

[17] = system: SK-MES-1
In short: as §1

[18] = system: NCI-H2023
In short: as §1

[19] = system: RERF-LC-KJ
In short: as §1

[20] = system: NCI-H3122
In short: as §1

[21] = system: NCI-H2170
In short: as §1

[22] = system: NCI-H1395
In short: as §1

COCC1(CO)C(=O)C2CCN1CC2 (configuration not stated) [PRIMA-1MET] + CCNC(=O)c1noc(-c2cc(C(C)C)c(O)cc2O)c1-c1ccc(CN2CCOCC2)cc1 [Luminespib] (partner 0.01 µM)
relative viability ([1]; first compound 0.2 µM): 0.989
relative viability ([1]; first compound 0.6325 µM): 0.923
relative viability ([1]; first compound 2 µM): 0.923
relative viability ([1]; first compound 6.325 µM): 0.91
relative viability ([1]; first compound 20 µM): 0.786
relative viability ([2]; first compound 0.2 µM): 0.167
relative viability ([2]; first compound 0.6325 µM): 0.17
relative viability ([2]; first compound 2 µM): 0.153
relative viability ([2]; first compound 6.325 µM): 0.181
relative viability ([2]; first compound 20 µM): 0.0951
relative viability ([3]; first compound 0.2 µM): 0.775
relative viability ([3]; first compound 0.6325 µM): 0.687
relative viability ([3]; first compound 2 µM): 0.845
relative viability ([3]; first compound 6.325 µM): 0.808
relative viability ([3]; first compound 20 µM): 0.111
relative viability ([4]; first compound 0.2 µM): 1.19
relative viability ([4]; first compound 0.6325 µM): 0.717
relative viability ([4]; first compound 2 µM): 0.714
relative viability ([4]; first compound 6.325 µM): 0.763
relative viability ([4]; first compound 20 µM): 0.58
relative viability ([5]; first compound 0.2 µM): 0.363
relative viability ([5]; first compound 0.6325 µM): 0.383
relative viability ([5]; first compound 2 µM): 0.547
relative viability ([5]; first compound 6.325 µM): 0.918
relative viability ([5]; first compound 20 µM): 0.166
relative viability ([6]; first compound 0.2 µM): 0.99
relative viability ([6]; first compound 0.6325 µM): 0.704
relative viability ([6]; first compound 2 µM): 0.66
relative viability ([6]; first compound 6.325 µM): 1.06
relative viability ([6]; first compound 20 µM): 0.824
relative viability ([7]; first compound 0.2 µM): 0.921
relative viability ([7]; first compound 0.6325 µM): 0.809
relative viability ([7]; first compound 2 µM): 0.858
relative viability ([7]; first compound 6.325 µM): 0.936
relative viability ([7]; first compound 20 µM): 0.109
relative viability ([8]; first compound 0.2 µM): 0.33
relative viability ([8]; first compound 0.6325 µM): 0.171
relative viability ([8]; first compound 2 µM): 0.21
relative viability ([8]; first compound 6.325 µM): 0.252
relative viability ([8]; first compound 20 µM): 0.154
relative viability ([9]; first compound 0.2 µM): 0.595
relative viability ([9]; first compound 0.6325 µM): 0.539
relative viability ([9]; first compound 6.325 µM): 0.529
relative viability ([9]; first compound 20 µM): 0.147
relative viability ([10]; first compound 0.2 µM): 1.19
relative viability ([10]; first compound 2 µM): 0.666
relative viability ([10]; first compound 6.325 µM): 0.746
relative viability ([10]; first compound 20 µM): 0.373
relative viability ([11]; first compound 0.2 µM): 0.181
relative viability ([11]; first compound 0.6325 µM): 0.224
relative viability ([11]; first compound 6.325 µM): 0.219
relative viability ([11]; first compound 20 µM): 0.0932
relative viability ([12]; first compound 0.2 µM): 0.722
relative viability ([12]; first compound 0.6325 µM): 0.696
relative viability ([12]; first compound 2 µM): 0.57
relative viability ([12]; first compound 6.325 µM): 0.675
relative viability ([12]; first compound 20 µM): 0.602
relative viability ([13]; first compound 0.2 µM): 1.05
relative viability ([13]; first compound 0.6325 µM): 0.831
relative viability ([13]; first compound 2 µM): 0.892
relative viability ([13]; first compound 6.325 µM): 0.985
relative viability ([13]; first compound 20 µM): 0.307
relative viability ([14]; first compound 0.2 µM): 0.878
relative viability ([14]; first compound 0.6325 µM): 0.673
relative viability ([14]; first compound 2 µM): 0.74
relative viability ([14]; first compound 6.325 µM): 0.712
relative viability ([14]; first compound 20 µM): 0.624
relative viability ([15]; first compound 0.2 µM): 0.691
relative viability ([15]; first compound 0.6325 µM): 0.528
relative viability ([15]; first compound 2 µM): 0.711
relative viability ([15]; first compound 6.325 µM): 0.578
relative viability ([15]; first compound 20 µM): 0.0159
relative viability ([16]; first compound 0.2 µM): 0.55
relative viability ([16]; first compound 0.6325 µM): 0.44
relative viability ([16]; first compound 2 µM): 0.3
relative viability ([16]; first compound 6.325 µM): 0.42
relative viability ([16]; first compound 20 µM): 0.267
relative viability ([17]; first compound 0.2 µM): 1.04
relative viability ([17]; first compound 0.6325 µM): 0.579
relative viability ([17]; first compound 2 µM): 0.885
relative viability ([17]; first compound 6.325 µM): 0.829
relative viability ([17]; first compound 20 µM): 0.746
relative viability ([18]; first compound 0.2 µM): 0.957
relative viability ([18]; first compound 0.6325 µM): 0.85
relative viability ([18]; first compound 2 µM): 0.745
relative viability ([18]; first compound 6.325 µM): 0.685
relative viability ([18]; first compound 20 µM): 0.642
relative viability ([19]; first compound 0.2 µM): 1.42
relative viability ([19]; first compound 0.6325 µM): 1.29
relative viability ([19]; first compound 2 µM): 1.36
relative viability ([19]; first compound 6.325 µM): 1.37
relative viability ([19]; first compound 20 µM): 1.03
relative viability ([20]; first compound 0.2 µM): 0.0725
relative viability ([20]; first compound 0.6325 µM): 0.0963
relative viability ([20]; first compound 2 µM): 0.0983
relative viability ([20]; first compound 6.325 µM): 0.0835
relative viability ([20]; first compound 20 µM): 0.0732
relative viability ([21]; first compound 0.2 µM): 1.06
relative viability ([21]; first compound 0.6325 µM): 0.545
relative viability ([21]; first compound 2 µM): 0.557
relative viability ([21]; first compound 6.325 µM): 0.68
relative viability ([21]; first compound 20 µM): 0.667
relative viability ([22]; first compound 0.2 µM): 0.845
relative viability ([22]; first compound 0.6325 µM): 0.676
relative viability ([22]; first compound 2 µM): 0.677
relative viability ([22]; first compound 6.325 µM): 0.603
relative viability ([22]; first compound 20 µM): 0.406
